In ChEMBL document CHEMBL4024719, “Recent progress in the identification of selective butyrylcholinesterase inhibitors for Alzheimer's disease” (Eur J Med Chem, 2017):

Legend:
Homo sapiens = organism: Homo sapiens; assay: Selectivity ratio of IC50 for human erythrocytes AChE to IC50 for human serum BuChE
[1] = target: Amyloid-beta precursor protein (Homo sapiens) (UniProt P05067); assay: Inhibition of amyloid beta (1 to 42) (unknown origin) self-aggregation at 25 uM incubated for 30 mins measured every 5 mins for 14 hrs by thioflavin T fluorescence assay relative to control
[2] = Cytotoxicity against human SH-SY5Y cells assessed as cell viability at 25 uM after 24 hrs by MTT assay relative to control; format: cell-based; conditions: read-out: Activity
Cholinesterase [3] = target: T1, Cholinesterase (Equus caballus, UniProt P81908); assay: Inhibition of equine serum BuChE using butyrylthiocholine iodide as substrate pretreated for 10 mins followed by substrate addition by DTNB reagent based spectrophotometric method
[4] = Selectivity ratio of IC50 for electric eel AChE to IC50 for equine serum BChE
Acetylcholinesterase [5] = target: T2, Acetylcholinesterase (Electrophorus electricus, UniProt O42275); assay: Inhibition of electric eel AChE using acetylthiocholine iodide as substrate pretreated for 6 mins followed by substrate measured at 60 secs interval for 180 secs by Ellman's method
Cholinesterase [6] = target: T1, Cholinesterase; assay: Inhibition of equine serum BuChE using s-butyrylthiocholine iodide as substrate pretreated for 6 mins followed by substrate addition measured at 60 secs interval for 180 secs by Ellman's method
[7] = target: Acetylcholinesterase (Electrophorus electricus) (UniProt O42275); assay: Inhibition of electric eel AChE-induced human amyloid beta (1 to 40 residues) at 100 uM by thiofalvin-T fluorescence assay relative to control
Acetylcholinesterase [8] = target: T2, Acetylcholinesterase; assay: Inhibition of electric eel AChE using acetylthiocholine iodide as substrate measured at 12 secs interval for 10 mins by Ellman's method
Cholinesterase [9] = target: T1, Cholinesterase; assay: Inhibition of equine serum BChE using butyrylthiocholine iodide as substrate measured at 12 secs interval for 10 mins by Ellman's method
Cholinesterase [10] = target: T3, Cholinesterase (Homo sapiens, UniProt P06276); assay: Inhibition of human plasma BuChE using butyrylthiocholine iodine as substrate pretreated for 10 mins followed by substrate addition measured for 5 mins by Ellman's method
Acetylcholinesterase [11] = target: Acetylcholinesterase (Homo sapiens, UniProt P22303); assay: Inhibition of human […] AChE using acetyl-(beta-methyl)thiocholine as substrate pretreated for 30 mins followed by substrate addition after 25 mins by spectrophotometric method
Cholinesterase [12] = target: T3, Cholinesterase; assay: Inhibition of human […] BuChE using s-butyrylthiocholine as substrate pretreated for 30 mins followed by substrate addition after 25 mins by spectrophotometric method
Acetylcholinesterase [13] = target: T4, Acetylcholinesterase (Bos taurus, UniProt P23795); assay: Inhibition of fetal bovine serum AChE using acetylthiocholine iodide as substrate
T4 sequence (P23795 whole entry): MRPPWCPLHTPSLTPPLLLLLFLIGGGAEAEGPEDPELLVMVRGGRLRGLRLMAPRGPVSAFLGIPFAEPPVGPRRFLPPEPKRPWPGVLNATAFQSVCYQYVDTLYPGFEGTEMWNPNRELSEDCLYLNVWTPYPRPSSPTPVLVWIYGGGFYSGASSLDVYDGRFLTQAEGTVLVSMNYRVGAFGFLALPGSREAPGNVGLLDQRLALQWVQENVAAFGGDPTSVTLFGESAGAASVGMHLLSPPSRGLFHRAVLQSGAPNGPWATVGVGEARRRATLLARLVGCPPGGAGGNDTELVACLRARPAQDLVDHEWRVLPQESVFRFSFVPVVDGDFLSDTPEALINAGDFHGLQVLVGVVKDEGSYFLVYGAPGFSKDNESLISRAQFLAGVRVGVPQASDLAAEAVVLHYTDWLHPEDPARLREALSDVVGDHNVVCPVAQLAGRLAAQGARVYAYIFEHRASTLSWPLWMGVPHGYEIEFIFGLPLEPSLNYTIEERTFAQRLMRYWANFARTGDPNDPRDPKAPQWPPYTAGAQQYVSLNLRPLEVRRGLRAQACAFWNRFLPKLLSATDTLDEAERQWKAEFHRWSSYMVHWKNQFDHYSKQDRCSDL

Cholinesterase [14] = target: T1, Cholinesterase; assay: Inhibition of equine serum BChE using butyrylthiocholine iodide as substrate
Cholinesterase [15] = target: T3, Cholinesterase; assay: Inhibition of BuChE (unknown origin)
Rattus norvegicus [16] = assay: In-vivo inhibition of BuChE in Harlan-Wistar rat brain assessed as increase in acetylcholine level at 1.25 mg/kg, ip by microdialysis method relative to control; format: functional
Rattus norvegicus [17] = assay: In-vivo inhibition of BuChE in Harlan-Wistar rat brain assessed as increase in acetylcholine level at 2.5 mg/kg, ip by microdialysis method relative to control; format: functional
[18] = target: Amyloid-beta precursor protein (Homo sapiens) (UniProt P05067); assay: Inhibition of HFIP-pretreated amyloid beta (1 to 42) (unknown origin) self-induced aggregation at 50 uM after 24 hrs by thioflavin-T fluorescence assay relative to control
[19] = Cytotoxicity against human T67 cells assessed as cell viability at 10 uM after 24 hrs by resazurin dye based spectrofluorimetric method relative to control; conditions: read-out: Activity
Cholinesterase [20] = target: T3, Cholinesterase; assay: Inhibition of human serum BuChE using butyrylthiocholine iodide as substrate pretreated for 20 mins followed by substrate addition by DTNB reagent based spectrophotometric method
[21] = Cytotoxicity against human T67 cells assessed as cell viability at 50 uM after 24 hrs by resazurin dye based spectrofluorimetric method relative to control; conditions: read-out: Activity
Cholinesterase [22] = target: T3, Cholinesterase; assay: Inhibition of human BuChE

T1 sequence (P81908 whole entry): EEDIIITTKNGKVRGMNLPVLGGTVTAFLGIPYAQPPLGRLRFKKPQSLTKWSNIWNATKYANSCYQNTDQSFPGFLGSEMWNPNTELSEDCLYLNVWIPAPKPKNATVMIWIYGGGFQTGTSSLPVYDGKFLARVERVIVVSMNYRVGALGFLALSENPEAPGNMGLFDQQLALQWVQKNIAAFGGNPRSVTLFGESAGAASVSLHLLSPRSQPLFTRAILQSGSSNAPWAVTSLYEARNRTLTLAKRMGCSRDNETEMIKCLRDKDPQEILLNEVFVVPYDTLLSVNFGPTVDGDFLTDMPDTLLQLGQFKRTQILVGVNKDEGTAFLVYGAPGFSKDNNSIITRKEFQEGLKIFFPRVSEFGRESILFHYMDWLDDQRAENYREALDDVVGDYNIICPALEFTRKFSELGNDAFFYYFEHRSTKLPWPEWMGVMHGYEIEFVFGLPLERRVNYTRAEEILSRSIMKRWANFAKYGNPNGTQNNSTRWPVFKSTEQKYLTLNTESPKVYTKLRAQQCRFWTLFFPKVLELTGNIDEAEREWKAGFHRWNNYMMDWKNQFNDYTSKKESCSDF
T2 sequence (O42275 whole entry): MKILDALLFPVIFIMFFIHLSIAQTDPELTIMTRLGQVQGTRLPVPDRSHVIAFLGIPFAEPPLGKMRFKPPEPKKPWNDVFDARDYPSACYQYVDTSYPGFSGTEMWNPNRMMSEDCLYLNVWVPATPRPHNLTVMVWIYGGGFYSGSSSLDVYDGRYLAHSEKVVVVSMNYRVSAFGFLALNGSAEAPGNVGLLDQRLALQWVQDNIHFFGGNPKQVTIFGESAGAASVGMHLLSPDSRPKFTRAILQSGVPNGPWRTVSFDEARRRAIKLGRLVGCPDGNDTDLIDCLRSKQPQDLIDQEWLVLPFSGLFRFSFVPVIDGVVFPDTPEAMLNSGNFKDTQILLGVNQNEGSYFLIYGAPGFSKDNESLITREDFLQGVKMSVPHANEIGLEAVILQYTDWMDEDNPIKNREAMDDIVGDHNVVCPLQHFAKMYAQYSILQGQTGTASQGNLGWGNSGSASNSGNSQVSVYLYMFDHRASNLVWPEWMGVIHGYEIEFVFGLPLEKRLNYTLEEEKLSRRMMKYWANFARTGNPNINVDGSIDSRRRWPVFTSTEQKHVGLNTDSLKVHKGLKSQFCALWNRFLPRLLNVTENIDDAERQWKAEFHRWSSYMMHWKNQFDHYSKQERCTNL
T3 sequence (P06276 whole entry): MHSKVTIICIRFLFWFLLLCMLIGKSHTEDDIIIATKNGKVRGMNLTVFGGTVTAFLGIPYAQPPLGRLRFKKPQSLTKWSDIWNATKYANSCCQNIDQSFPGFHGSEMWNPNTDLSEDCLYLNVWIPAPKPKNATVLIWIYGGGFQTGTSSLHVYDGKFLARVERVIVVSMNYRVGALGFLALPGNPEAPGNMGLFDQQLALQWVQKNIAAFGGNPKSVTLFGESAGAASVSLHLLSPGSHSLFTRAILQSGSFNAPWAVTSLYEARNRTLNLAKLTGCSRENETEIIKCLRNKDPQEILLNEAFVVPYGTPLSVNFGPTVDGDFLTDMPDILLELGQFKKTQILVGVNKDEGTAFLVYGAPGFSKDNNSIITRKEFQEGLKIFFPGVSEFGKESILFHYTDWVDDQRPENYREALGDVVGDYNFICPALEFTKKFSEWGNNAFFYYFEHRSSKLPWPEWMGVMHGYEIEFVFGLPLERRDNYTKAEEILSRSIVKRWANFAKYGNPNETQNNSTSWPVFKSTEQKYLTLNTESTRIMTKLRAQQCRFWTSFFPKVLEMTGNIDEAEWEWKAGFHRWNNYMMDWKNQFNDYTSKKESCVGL
Sequence of Amyloid-beta precursor protein (Homo sapiens) (P05067 whole entry): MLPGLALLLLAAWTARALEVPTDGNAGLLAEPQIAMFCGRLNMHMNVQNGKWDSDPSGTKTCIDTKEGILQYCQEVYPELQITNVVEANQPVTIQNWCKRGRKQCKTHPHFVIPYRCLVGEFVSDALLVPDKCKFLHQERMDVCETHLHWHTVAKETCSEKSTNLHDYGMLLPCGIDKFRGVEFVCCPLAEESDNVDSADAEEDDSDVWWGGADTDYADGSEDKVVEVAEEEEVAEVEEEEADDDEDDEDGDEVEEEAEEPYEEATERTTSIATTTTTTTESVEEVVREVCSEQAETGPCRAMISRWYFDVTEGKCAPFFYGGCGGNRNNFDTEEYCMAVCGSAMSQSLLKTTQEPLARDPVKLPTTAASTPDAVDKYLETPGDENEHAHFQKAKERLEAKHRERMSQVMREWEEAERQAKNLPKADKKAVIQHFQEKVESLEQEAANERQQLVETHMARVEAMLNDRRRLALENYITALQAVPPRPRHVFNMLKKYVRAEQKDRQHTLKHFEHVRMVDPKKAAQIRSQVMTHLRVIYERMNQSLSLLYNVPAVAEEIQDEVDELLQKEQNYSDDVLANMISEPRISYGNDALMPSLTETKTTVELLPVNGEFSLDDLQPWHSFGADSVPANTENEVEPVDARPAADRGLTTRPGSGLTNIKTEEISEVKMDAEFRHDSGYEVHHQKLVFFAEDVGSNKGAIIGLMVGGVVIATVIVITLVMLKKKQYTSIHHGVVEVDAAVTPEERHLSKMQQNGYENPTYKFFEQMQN
Sequence of Acetylcholinesterase (Electrophorus electricus) (O42275 24-633 limits assumed): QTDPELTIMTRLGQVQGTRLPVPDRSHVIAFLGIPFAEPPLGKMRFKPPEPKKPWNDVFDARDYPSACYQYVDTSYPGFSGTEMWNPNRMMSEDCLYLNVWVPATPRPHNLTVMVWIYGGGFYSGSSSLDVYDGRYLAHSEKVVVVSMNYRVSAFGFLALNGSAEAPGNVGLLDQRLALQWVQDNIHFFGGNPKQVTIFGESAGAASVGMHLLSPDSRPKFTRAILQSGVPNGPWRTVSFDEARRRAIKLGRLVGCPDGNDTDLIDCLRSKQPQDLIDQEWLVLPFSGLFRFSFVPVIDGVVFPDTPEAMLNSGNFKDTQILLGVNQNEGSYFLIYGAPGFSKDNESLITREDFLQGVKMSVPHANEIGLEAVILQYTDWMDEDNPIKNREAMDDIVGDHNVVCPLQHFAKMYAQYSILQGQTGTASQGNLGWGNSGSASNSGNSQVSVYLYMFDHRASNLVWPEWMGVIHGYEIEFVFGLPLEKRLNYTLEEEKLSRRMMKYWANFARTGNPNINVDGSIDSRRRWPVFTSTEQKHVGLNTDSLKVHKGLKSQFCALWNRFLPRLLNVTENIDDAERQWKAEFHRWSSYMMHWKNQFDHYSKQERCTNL
Sequence of Acetylcholinesterase (Homo sapiens, UniProt P22303) (P22303 whole entry): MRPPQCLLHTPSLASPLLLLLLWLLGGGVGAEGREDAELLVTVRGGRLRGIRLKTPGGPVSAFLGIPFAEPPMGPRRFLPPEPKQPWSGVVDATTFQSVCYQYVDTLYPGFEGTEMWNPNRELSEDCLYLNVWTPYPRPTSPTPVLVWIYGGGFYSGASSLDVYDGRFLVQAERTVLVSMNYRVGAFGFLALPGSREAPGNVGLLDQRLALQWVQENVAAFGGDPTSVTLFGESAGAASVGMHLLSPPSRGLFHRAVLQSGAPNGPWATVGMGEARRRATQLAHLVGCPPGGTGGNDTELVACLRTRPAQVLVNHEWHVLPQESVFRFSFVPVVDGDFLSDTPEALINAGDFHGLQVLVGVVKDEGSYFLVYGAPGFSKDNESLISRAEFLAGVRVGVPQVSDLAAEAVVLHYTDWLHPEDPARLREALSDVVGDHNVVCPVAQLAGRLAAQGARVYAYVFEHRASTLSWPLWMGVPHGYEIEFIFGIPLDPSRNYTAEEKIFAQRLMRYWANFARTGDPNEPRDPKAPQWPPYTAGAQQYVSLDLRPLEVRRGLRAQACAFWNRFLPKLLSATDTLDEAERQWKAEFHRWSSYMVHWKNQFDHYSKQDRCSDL

With `COc1ccc(CNc2c3c(nc4ccccc24)CCCC3)cc1OC` the Ratio IC50 (Homo sapiens) was 110, the inhibition [1] was 40% and the viability at 24 h, 25 µM [2] was 58.9%.
With `CCN1CCc2c(c3cc(F)ccc3n2CCC(=O)N2c3ccccc3Sc3ccccc32)C1` the IC50 (Cholinesterase [3]) was 0.39 µM.
For `O=C(NCCCCCCNc1c2c(nc3ccccc13)CCCCC2)c1cc(O)c2c(c1)C(=O)c1cccc(O)c1C2=O`, the Ratio IC50 [4] was 11, the IC50 (Acetylcholinesterase [5]) was 0.13 µM and the IC50 (Cholinesterase [6]) was 0.011 µM. For the same compound, the inhibition [7] was 64.8%.
With `Oc1ccccc1/C=C/c1cc(O)c(F)c(O)c1` the Ratio IC50 [4] was 96, the IC50 (Acetylcholinesterase [8]) was 960 µM and the IC50 (Cholinesterase [9]) was 10 µM.
Compound `COc1ccc(N[C@H]2CCC[C@@H](OC(=O)N(C)C)C2)cc1` has an IC50 (Cholinesterase [10]) of 110 µM.
In the case of `CC(C)c1ccc(NC(=O)Oc2ccc3c(c2)[C@]2(C)CCC(C)[C@@H]2C3C)cc1` (stereo partly drawn), the IC50 (Acetylcholinesterase [11]) is reported as 0.76 µM and the IC50 (Cholinesterase [12]) is reported as 0.05 µM.
Compound `c1ccc2c(NCCCCCCCSc3c4c(nc5ccccc35)CCCC4)c3c(nc2c1)CCCC3` has an IC50 (Acetylcholinesterase [13]) of 0.34 µM and an IC50 (Cholinesterase [14]) of 0.035 µM.
`COc1ccc(N[C@@H]2CCC[C@@H](OC(=O)N(C)C)C2)cc1` showed an IC50 (Cholinesterase [10]) of 110 µM.
For `CC(=O)N(CCCNc1c2c(nc3ccccc13)CCCC2)CCNc1c2c(nc3ccccc13)CCCC2`, the IC50 (Acetylcholinesterase [13]) was 1.5 µM and the IC50 (Cholinesterase [14]) was 0.002 µM.
Compound `Oc1ccc(-c2cnc3ccccc3n2)cc1` has an IC50 (Cholinesterase [15]) of 7.7 µM.
Compound `CC(C(=O)NCCCCCCCCNc1c2c(nc3ccccc13)CCCC2)c1ccc(-c2ccccc2)c(F)c1` (stereo not drawn) has a Ratio IC50 [4] of 16.4.
In the case of `CC(C)c1ccc(NC(=O)Oc2ccc3c(c2)[C@]2(C)CCN(CCc4ccccc4)[C@@H]2N3C)cc1`, the inhibition in vivo at 1.25 mg/kg (Rattus norvegicus [16]) is reported as 180% and the inhibition in vivo at 2.5 mg/kg (Rattus norvegicus [17]) is reported as 290%.
Work on `COc1ccccc1CN1CCN(Cc2ccc3cccnc3c2O)CC1` yielded an inhibition [18] of 44.2%, a viability at 24 h, 10 µM [19] greater than 90% and an IC50 (Cholinesterase [20]) of 5.71 µM. It also gave a viability at 24 h, 50 µM [21] of 81%.
For `c1ccc2c(SCCCCCCCSc3c4c(nc5ccccc35)CCCC4)c3c(nc2c1)CCCC3`, the IC50 (Acetylcholinesterase [13]) was greater than 10 µM and the IC50 (Cholinesterase [14]) was 0.38 µM.
For `COc1ccc(Cn2cc(CNc3c4c(nc5ccccc35)CCCC4)nn2)cc1`, the IC50 (Cholinesterase [22]) was 0.055 µM.
`c1ccc(CNc2c3c(nc4ccccc24)CCCC3)nc1` showed a Ratio IC50 (Homo sapiens) of 957.
For `Oc1ccc(/C=C/c2cc(O)cc(O)c2)cc1` [RESVERATROL], the IC50 (Acetylcholinesterase [8]) was greater than 1000 µM and the IC50 (Cholinesterase [9]) was 400 µM.
